Target: T1, α-β tubulin (β tubulin, porcine brain) (Sus scrofa, UniProt P02550+P02554)
T1 construct: α-β tubulin purified from porcine brains, labeled with RED-NHS; with α tubulin
Assay: microscale thermophoresis, labeled tubulin
Format: binding

T1 sequence (P02554 whole entry): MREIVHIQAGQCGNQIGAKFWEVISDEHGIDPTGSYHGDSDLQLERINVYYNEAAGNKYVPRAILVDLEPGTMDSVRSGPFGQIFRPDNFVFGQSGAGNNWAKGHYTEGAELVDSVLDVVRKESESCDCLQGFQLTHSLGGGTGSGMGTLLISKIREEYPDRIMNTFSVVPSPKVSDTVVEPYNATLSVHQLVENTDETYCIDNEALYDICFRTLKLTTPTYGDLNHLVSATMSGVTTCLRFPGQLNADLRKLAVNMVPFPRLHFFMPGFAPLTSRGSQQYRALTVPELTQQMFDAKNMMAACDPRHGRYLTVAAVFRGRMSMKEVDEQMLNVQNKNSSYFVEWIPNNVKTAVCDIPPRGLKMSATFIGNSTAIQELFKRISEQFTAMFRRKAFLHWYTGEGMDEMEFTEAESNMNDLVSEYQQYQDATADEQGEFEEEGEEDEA
T1 sequence (P02550 whole entry): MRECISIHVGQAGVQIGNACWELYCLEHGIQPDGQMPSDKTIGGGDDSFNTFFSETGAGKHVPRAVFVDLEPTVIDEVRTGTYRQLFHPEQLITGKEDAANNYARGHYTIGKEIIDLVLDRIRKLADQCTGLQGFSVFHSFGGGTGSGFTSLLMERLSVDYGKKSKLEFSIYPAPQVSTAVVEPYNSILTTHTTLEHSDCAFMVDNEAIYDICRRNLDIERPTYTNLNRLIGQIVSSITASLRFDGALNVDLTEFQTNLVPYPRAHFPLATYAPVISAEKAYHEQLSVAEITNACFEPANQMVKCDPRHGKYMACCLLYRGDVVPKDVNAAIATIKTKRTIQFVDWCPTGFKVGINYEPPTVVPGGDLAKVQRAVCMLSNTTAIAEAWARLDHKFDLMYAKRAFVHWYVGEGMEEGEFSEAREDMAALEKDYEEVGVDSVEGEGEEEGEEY

Q: For `COc1cc2c(=O)c(-c3cc(OC)c4c(c3OC)OCO4)coc2cc1OCc1ccccc1` [gatastatin], which Kd is on record?
A: The Kd was 2.16 ± 0.47 µM.

From PMC10046562, “Computational Analysis and Experimental Testing of the Molecular Mode of Action of Gatastatin and Its Derivatives” (Cancers, 2023)
